# Source: US10703741B2, “Covalent inhibitors of PAD4” (Padlock Therapeutics, Inc., priority 2016, dated 2020)
# Read-outs that look alike come from different tables or passages of the source.
# Tests used:
# hPAD4 enzyme = hPAD4 enzyme (Homo sapiens (Human), UniProt Q9UM07); assay: PAD4 RapidFire Mass Spectrometry (RFMS) activity assay, hPAD4; format: biochemical
# mPAD4 = mPAD4 (Mus musculus (Mouse), UniProt Q9Z183); assay: PAD4 RapidFire Mass Spectrometry (RFMS) activity assay, mPAD4; format: biochemical
# Chain of mPAD4 (Q9Z183 whole entry): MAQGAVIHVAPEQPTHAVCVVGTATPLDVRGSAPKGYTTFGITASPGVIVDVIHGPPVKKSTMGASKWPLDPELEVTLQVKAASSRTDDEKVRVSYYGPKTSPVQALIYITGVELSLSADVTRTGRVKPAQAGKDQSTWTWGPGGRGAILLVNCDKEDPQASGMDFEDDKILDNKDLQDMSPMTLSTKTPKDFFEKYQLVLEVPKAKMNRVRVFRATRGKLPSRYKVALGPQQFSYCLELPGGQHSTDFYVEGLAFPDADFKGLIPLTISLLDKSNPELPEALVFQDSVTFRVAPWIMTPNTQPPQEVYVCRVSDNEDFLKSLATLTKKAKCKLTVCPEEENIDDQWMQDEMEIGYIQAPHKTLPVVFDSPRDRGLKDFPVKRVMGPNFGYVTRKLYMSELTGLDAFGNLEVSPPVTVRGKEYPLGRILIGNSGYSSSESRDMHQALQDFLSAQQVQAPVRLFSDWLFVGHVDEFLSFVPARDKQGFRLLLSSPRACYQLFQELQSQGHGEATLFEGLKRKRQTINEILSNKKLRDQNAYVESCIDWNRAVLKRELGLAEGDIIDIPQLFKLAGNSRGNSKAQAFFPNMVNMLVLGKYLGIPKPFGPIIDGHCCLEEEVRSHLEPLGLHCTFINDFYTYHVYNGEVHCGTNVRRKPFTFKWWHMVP
# [1] = 100 nM hPAD4, 50 μM substrate peptide, 1 mM CaCl2, 65 mins at 37° C., read-out: hPAD4 RFMS IC50
# [2] = pIC50=−log(IC50), read-out: hPAD4 RFMS pIC50 (converted)
# [3] = pIC50=−log(IC50), read-out: mPAD4 RFMS pIC50 (converted)
# Chain of hPAD4 enzyme (Q9UM07 whole entry): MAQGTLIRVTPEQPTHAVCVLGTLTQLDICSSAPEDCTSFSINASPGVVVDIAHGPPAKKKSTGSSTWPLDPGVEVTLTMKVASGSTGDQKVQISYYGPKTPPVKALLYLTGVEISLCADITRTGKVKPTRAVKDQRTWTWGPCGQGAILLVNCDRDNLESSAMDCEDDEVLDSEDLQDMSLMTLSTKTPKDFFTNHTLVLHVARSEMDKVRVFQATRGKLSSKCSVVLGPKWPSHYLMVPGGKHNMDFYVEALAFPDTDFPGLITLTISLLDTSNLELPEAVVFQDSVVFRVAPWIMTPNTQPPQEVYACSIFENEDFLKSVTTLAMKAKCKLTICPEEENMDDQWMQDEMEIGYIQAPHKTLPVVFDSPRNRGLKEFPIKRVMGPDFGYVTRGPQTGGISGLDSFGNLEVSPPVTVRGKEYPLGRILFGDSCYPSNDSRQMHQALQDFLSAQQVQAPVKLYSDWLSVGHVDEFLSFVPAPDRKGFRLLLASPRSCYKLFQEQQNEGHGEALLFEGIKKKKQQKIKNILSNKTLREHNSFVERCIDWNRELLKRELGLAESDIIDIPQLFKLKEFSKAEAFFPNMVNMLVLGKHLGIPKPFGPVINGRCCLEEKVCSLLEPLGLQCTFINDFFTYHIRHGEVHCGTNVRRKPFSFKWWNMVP
Structure (SMILES),IC50 (hPAD4 enzyme; [1]),IC50 (hPAD4 enzyme; [2]),IC50 (mPAD4; [3]),IC50 (mPAD4; read-out: mPAD4 RFMS IC50)
"C=CC(=O)O[C@@H]1CNC[C@@H]1NC(=O)c1ccc2c(c1)nc(-c1cc3cccnc3n1CC1CC1)n2C (racemic) [Compound I-11, Rac-(3R,4S)-4-{2-[1-(cyclopropylmethyl)-1H-pyrrolo[2,3-b]pyridin-2-yl]-1-methyl-1H-1,3-benzodiazole-5-amido}pyrrolidin-3-yl prop-2-enoate]",> 10 µM,10 to 100 µM,,
"C=CC(=O)N(C)[C@@H]1C[C@@H]2CN(C(=O)c3cc(OC)c4c(c3)nc(-c3cc5cccnc5n3CC3CC3)n4C)[C@H]1[C@@H]2N (single isomer, unassigned) [Compound I-16]",> 10 µM,100 to 100000 µM,,
"C=CC(=O)N(C)[C@H]1C[C@@H]2CN(C(=O)c3cc(OC)c4c(c3)nc(-c3cc5cccnc5n3CC3CC3)n4C)[C@H]1[C@@H]2N (single isomer, unassigned) [Compound I-17]",> 10 µM,100 to 100000 µM,,
C/C=C/C(=O)N[C@@H]1CNC[C@H]1NC(=O)c1ccc2c(c1)nc(-c1cc3cccnc3n1CC1CC1)n2C [Compound I-6],> 10 µM,100 to 100000 µM,,
"CN(C)C/C=C/C(=O)NCCN(CCc1cnc[nH]1)C(=O)c1ccc2c(c1)nc(-c1cc3cccnc3n1CC1CC1)n2C [Compound I-7, (2E)-N-[2-(1-{2-[1-(Cyclopropylmethyl)-1H-pyrrolo[2,3-b]pyridin-2-yl]-1-methyl-1H-1,3-benzodiazol-5-yl}-N-[2-(1H-imidazol-5-yl)ethyl]formamido)ethyl]-4-(dimethylamino)but-2-enamide]",> 10 µM,100 to 100000 µM,,

# Results, then the compound that gave them:
IC50 (hPAD4 enzyme; [1]),IC50 (hPAD4 enzyme; [2]),IC50 (mPAD4; [3]),IC50 (mPAD4; read-out: mPAD4 RFMS IC50),Structure (SMILES)
> 10 µM,100 to 100000 µM,10 to 100 µM,> 10 µM,"CN(C)C/C=C/C(=O)N[C@H]1CCN(C(=O)c2ccc3c(c2)nc(-c2cc4cccnc4n2CC2CC2)n3C)C[C@H]1N (racemic) [Compound I-3, Cis-rac-(2E)-N-[(3R,4S)-3-amino-1-{2-[1-(cyclopropylmethyl)-1H-pyrrolo[2,3-b]pyridin-2-yl]-1-methyl-1H-1,3-benzodiazole-5-carbonyl}piperidin-4-yl]-4-(dimethylamino)but-2-enamide]"
> 10 µM,10 to 100 µM,10 to 100 µM,> 10 µM,"CN(C)C/C=C/C(=O)N[C@@H]1C[C@H](N)CN(C(=O)c2ccc3c(c2)nc(-c2cc4cccnc4n2CC2CC2)n3C)C1 (racemic) [Compound I-10, Cis-rac-(2E)-N-[(3R,5S)-5-amino-1-{2-[1-(cyclopropylmethyl)-1H-pyrrolo[2,3-b]pyridin-2-yl]-1-methyl-1H-1,3-benzodiazole-5-carbonyl}piperidin-3-yl]-4-(dimethylamino)but-2-enamide]"
> 10 µM,10 to 100 µM,,,"CN(C)C/C=C/C(=O)N[C@@H]1CCCN(C(=O)c2ccc3c(c2)nc(-c2cc4cccnc4n2CC2CC2)n3C)C1 [Compound I-12, (2E)-N-[(3R)-1-{2-[1-(cyclopropylmethyl)-1H-pyrrolo[2,3-b]pyridin-2-yl]-1-methyl-1H-1,3-benzodiazole-5-carbonyl}piperidin-3-yl]-4-(dimethylamino)but-2-enamide]"
> 10 µM,100 to 100000 µM,,,"C=CC(=O)N[C@@H]1CCCN(C(=O)c2ccc3c(c2)nc(-c2cc4cccnc4n2CC2CC2)n3C)C1 [Compound I-13, N-[(3R)-1-{2-[1-(cyclopropylmethyl)-1H-pyrrolo[2,3-b]pyridin-2-yl]-1-methyl-1H-1,3-benzodiazole-5-carbonyl}piperidin-3-yl]prop-2-enamide]"
